Four molecules from patent publication US20150166528A1, “Pesticidal methods using substituted 3-pyridyl thiazole compounds and derivatives for combating animal pests” (BASF SE, priority 2012, published 2015) can be followed below.

Holding throughout (assay type): in vivo
For one assay, the system named is Megoura viciae. Kind of assay: Vetch aphid (Megoura viciae) leaf disk test, contact or systemic. Particulars: foliar, 120 h, sprayed broad bean leaf disks, adult aphids, 5 days, read-out: mortality in comparison with untreated controls. The method, then:
For evaluating control of vetch aphid (Megoura viciae) through contact or systemic means the test unit consisted of 24-well-microtiter plates containing broad bean leaf disks.
The compounds were formulated using a solution containing 75% v/v water and 25% v/v DMSO. Different concentrations of formulated compounds were sprayed onto the leaf disks at 2.5 μl, using a custom built micro atomizer, at two replications.
After application, the leaf disks were air-dried and 5-8 adult aphids were placed on the leaf disks inside the microtiter plate wells. The aphids were then allowed to suck on the treated leaf disks and were incubated at about 23±1° C. and about 50±5% relative humidity for 5 days. Aphid mortality and fecundity were then visually assessed.

In a further assay the test system is Myzus persicae. Kind of assay: Green peach aphid (Myzus persicae) artificial diet test, systemic. The note with it: 72 h, in liquid artificial aphid diet, adult aphids, 3 days, read-out: mortality in comparison with untreated controls. The source says:
For evaluating control of green peach aphid (Myzus persicae) through systemic means the test unit consisted of 96-well-microtiter plates containing liquid artificial diet under an artificial membrane.
The compounds were formulated using a solution containing 75% v/v water and 25% v/v DMSO. Different concentrations of formulated compounds were pipetted into the aphid diet, using a custom built pipetter, at two replications.
After application, 5-8 adult aphids were placed on the artificial membrane inside the microtiter plate wells. The aphids were then allowed to suck on the treated aphid diet and were incubated at about 23±1° C. and about 50±5% relative humidity for 3 days. Aphid mortality and fecundity was then visually assessed.

A further assay relates to Aphis Craccivora. Nature of the assay: Cowpea aphid (Aphis craccivora) potted cowpea plant spray test. Particulars: sprayed potted cowpea plants, population reduction assessed after 24, 72 and 120 hours, read-out: mortality in comparison with untreated controls. The method, then:
The active compound was dissolved at the desired concentration in a mixture of 1:1 (vol:vol) distilled water:acetone. The test solution was prepared at the day of use.
Potted cowpea plants colonized with approximately 100-150 aphids of various stages were sprayed after the pest population has been recorded. Population reduction was assessed after 24, 72, and 120 hours.

A further assay deals with Bemisia Argentifolii. Nature of the assay: Silverleaf whitefly (Bemisia argentifolii) cotton plant spray test. Particulars: 72 h, sprayed cotton plants, whitefly adults, 3 days after treatment, read-out: mortality in comparison with untreated controls. The text has this: The active compounds were formulated in cyclohexanone as a 10,000 ppm solution supplied in tubes. The tubes were inserted into an automated electrostatic sprayer equipped with an atomizing nozzle and they served as stock solutions for which lower dilutions were made in 50% acetone:50% water (v/v). A nonionic surfactant (Kinetic®) was included in the solution at a volume of 0.01% (v/v).
Cotton plants at the cotyledon stage (one plant per pot) were sprayed by an automated electrostatic plant sprayer equipped with an atomizing spray nozzle. The plants were dried in the sprayer fume hood and then removed from the sprayer. Each pot was placed into a plastic cup and about 10 to 12 whitefly adults (approximately 3-5 days old) were introduced. The insects were collected using an aspirator and a nontoxic Tygon® tubing connected to a barrier pipette tip. The tip, containing the collected insects, were gently inserted into the soil containing the treated plant, allowing insects to crawl out of the tip to reach the foliage for feeding. Cups were covered with a reusable screened lid. Test plants were maintained in a growth room at about 25° C. and about 20-40% relative humidity for 3 days, avoiding direct exposure to fluorescent light (24 hour photoperiod) to prevent trapping of heat inside the cup. Mortality was assessed 3 days after treatment, compared to untreated control plants.

Another assay concerns Heliothis virescens. Nature of the assay: Tobacco budworm (Heliothis virescens) insect diet egg/larval test. Particulars: 120 h, sprayed onto insect diet with eggs, egg and larval mortality, 5 days, read-out: mortality in comparison with untreated controls. How it is done: For evaluating control of tobacco budworm (Heliothis virescens) the test unit consists of 96-well-microtiter plates containing an insect diet and 15-25 H. virescens eggs.
The compounds were formulated using a solution containing 75% v/v water and 25% v/v DMSO. Different concentrations of formulated compounds were sprayed onto the insect diet at 10 μl, using a custom built micro atomizer, at two replications.
After application, microtiter plates were incubated at about 28±1° C. and about 80±5% relative humidity for 5 days. Egg and larval mortality was then visually assessed.

A value given as a limit tells only on which side of the number the result lay.

Consider `CCN(C1=NCCS1)c1cnc(-c2cccnc2)s1` [C.1, N-(4,5-dihydrothiazol-2-yl)-N-ethyl-2-(3-pyridyl)thiazol-5-amine], for which the mortality at 800 ppm with Megoura viciae and in the assay on Myzus persicae was not below 75% throughout. Besides, the mortality at 100 ppm in the assay with Aphis Craccivora was not below 75%. For the same molecule, the mortality at 300 ppm in the assay with Bemisia Argentifolii was not below 75%.

For the molecule `CCN(C1=NCCS1)c1sc(-c2cccnc2)nc1Cl` [C.3, 4-chloro-N-(4,5-dihydrothiazol-2-yl)-N-ethyl-2-(3-pyridyl)thiazol-5-amine], the mortality at 800 ppm in the assay with Megoura viciae is not below 75%. For the same molecule, the mortality at 100 ppm in the assay on Aphis Craccivora was not below 75%.

On to `CCN(C1=NCCO1)c1sc(-c2cccnc2)nc1Cl` [C.4, N-[4-chloro-2-(3-pyridyl)thiazol-5-yl]-N-ethyl-4,5-dihydrooxazol-2-amine], for which the mortality at 800 ppm in the assay on Megoura viciae and in the assay on Myzus persicae was not below 75% throughout. Further, the mortality at 100 ppm in the assay on Aphis Craccivora is not below 75%. Also, in the assay on Bemisia Argentifolii, the mortality at 300 ppm was not below 75%.

As to `[O-][S+](c1ncccn1)c1cnc(-c2cccnc2)s1` (centres unmarked) [C.11, 2-(3-Pyridyl)-5-pyrimidin-2-ylsulfinyl-thiazole], the mortality at 800 ppm in the assay with Heliothis virescens was not below 75%.

Broadly, the mortality is the share of the test organisms that died.
